Values of other authors as cited in patent publication US9072700B2, “Methods of using derivatives of (−)-venlafaxine” (Sunovion Pharmaceuticals Inc., priority 1998, dated 2015).

How the values were obtained:
[1] = test system: norepinephrine synaptosomal uptake; details: Howell et al. 1994
[2] = Klamerus et al. 1992
norepinephrine uptake = details: in vitro; Muth et al. 1991
dopamine uptake = details: in vitro; Muth et al. 1991
serotonin uptake = details: Howell et al. 1994

Compound: COc1ccc([C@H](CN(C)C)C2(O)CCCCC2)cc1 [(−) enantiomer]
- inhibition of norepinephrine synaptosomal uptake, enantiomer comparison [1]: more potent inhibitor

Compound: CN(C)CC(c1ccc(O)cc1)C1(O)CCCCC1 (racemic) [O-desmethylvenlafaxine, (±)-1-[2-(dimethylamino)-1-(4-phenol)ethyl]cyclohexanol]
- half-life (t½) [2]: about 10 hours
- half-life relative to that of venlafaxine ([2]; ratio to venlafaxine half-life): approximately 2.5 times
- inhibition of norepinephrine uptake compared with racemic venlafaxine (norepinephrine uptake): more potent inhibitor
- inhibition of dopamine uptake compared with racemic venlafaxine (dopamine uptake): more potent inhibitor

Compound: COc1ccc(C(CN(C)C)C2(O)CCCCC2)cc1 (single isomer, unassigned; (+)) [(+) enantiomer]
- selectivity in inhibiting serotonin uptake, enantiomer comparison (serotonin uptake): more selective
